Test system: HEK293T cells carrying the ATF4 luciferase reporter
Assay: ATF4-Luc assay, in vitro model of Vanishing Cell White Matter Disease (VWMD)
Assay type: cell-based
Conditions: Homo sapiens, HEK-293T, 1 μg/mL tunicamycin, 7 hours, One Glo luminescence
Method in brief: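 Reporter cells were stably generated by retroviral transduction and puromycin selection, then seeded at 30,000 cells/well. Next day, cells received 1 μg/mL tunicamycin with 200 nM test compound for 7 h, and luciferase luminescence was read with a one-step reagent. Values reported as EC50.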

Compound	EC50 [nM]
Cn1nc(C(=O)NC23CC(NC(=O)COc4ccc(Cl)c(F)c4)(C2)C3)c2ccccc21 [Compound 823, N-{3-[2-(4-chloro-3-fluorophenoxy)acetamido]bicyclo[1.1.1]pentan-1-yl}-1-methyl-1H-indazole-3-carboxamide]	> 2000
Cc1cc(C(=O)NC23CCC(NC(=O)COc4ccc(F)c(F)c4)(CC2)C(O)C3)on1 (stereo not drawn) [Compound 462, N-{4-[2-(3,4-difluorophenoxy)acetamido]-3-hydroxybicyclo[2.2.2]octan-1-yl}-3-methyl-1,2-oxazole-5-carboxamide]	250 to 1000
Cc1cncc(NC23CC(NC(=O)COc4ccc(Cl)c(F)c4)(C2)C3)n1 [Compound 688, 2-(4-chloro-3-fluorophenoxy)-N-{3-[(6-methylpyrazin-2-yl)amino]bicyclo[1.1.1]pentan-1-yl}acetamide]	> 2000
Cc1nnc(C(=O)NC23CCC(NC(=O)COc4ccc(Cl)c(F)c4)(CC2)C(O)C3)o1 (stereo not drawn) [Compound 516, N-{4-[2-(4-chloro-3-fluorophenoxy)acetamido]-3-hydroxybicyclo[2.2.2]octan-1-yl}-5-methyl-1,3,4-oxadiazole-2-carboxamide]	1000 to 2000
Cc1ccc2nc(C(=O)NC34CCC(NC(=O)COc5ccc(Cl)c(F)c5)(CC3)C(O)C4)cn2c1 (stereo not drawn) [Compound 597, N-{4-[2-(4-chloro-3-fluorophenoxy)acetamido]-3-hydroxybicyclo[2.2.2]octan-1-yl}-6-methylimidazo[1,2-a]pyridine-2-carboxamide]	250 to 1000
O=C(COc1ccc(Cl)c(F)c1)NC12CC(NC(=O)c3ccc4c(c3)OCCO4)(C1)C2 [Compound 387, N-{3-[2-(4-chloro-3-fluorophenoxy)acetamido]bicyclo[1.1.1]pentan-1-yl}-2,3-dihydro-1,4-benzodioxine-6-carboxamide]	50 to 250
O=C(COc1ccc(Cl)c(F)c1)NC12CCC(NC(=O)c3cn[nH]c3)(CC1)C(O)C2 (stereo not drawn) [Compound 214, N-{4-[2-(4-chloro-3-fluorophenoxy)acetamido]-2-hydroxybicyclo[2.2.2]octan-1-yl}-1H-pyrazole-4-carboxamide]	> 2000
Cc1nnc(C(=O)NC23CC(NC(=O)COc4ccc(Cl)c(F)c4)(C2)C3)o1 [Compound 354, N-{3-[2-(4-chloro-3-fluorophenoxy)acetamido]bicyclo[1.1.1]pentan-1-yl}-5-methyl-1,3,4-oxadiazole-2-carboxamide]	1000 to 2000
O=C(COc1ccc(Cl)c(F)c1)NC12CC(Nc3cncc(C(F)(F)F)n3)(C1)C2 [Compound 747, 2-(4-chloro-3-fluorophenoxy)-N-(3-{[6-(trifluoromethyl)pyrazin-2-yl]amino}bicyclo[1.1.1]pentan-1-yl)acetamide]	> 2000
Cc1nn(C)c2c(NC34CC(NC(=O)COc5ccc(Cl)c(F)c5)(C3)C4)ncnc12 [Compound 426, 2-(4-chloro-3-fluorophenoxy)-N-{3-[(1,3-dimethyl-1H-pyrazolo[4,3-d]pyrimidin-7-yl)amino]bicyclo[1.1.1]pentan-1-yl}acetamide]	> 2000
CC(C)c1nc(C(=O)NC23CCC(NC(=O)COc4ccc(Cl)c(F)c4)(CC2)C(O)C3)co1 (stereo not drawn) [Compound 607, N-{4-[2-(4-chloro-3-fluorophenoxy)acetamido]-3-hydroxybicyclo[2.2.2]octan-1-yl}-2-(propan-2-yl)-1,3-oxazole-4-carboxamide]	50 to 250
Cc1ccn2cc(C(=O)NC34CC(NC(=O)COc5ccc(Cl)c(F)c5)(C3)C4)nc2c1 [Compound 808, N-{3-[2-(4-chloro-3-fluorophenoxy)acetamido]bicyclo[1.1.1]pentan-1-yl}-7-methylimidazo[1,2-a]pyridine-2-carboxamide]	> 2000
Cc1ccc(C(=O)NC23CC(NC(=O)COc4ccc(Cl)c(F)c4)(C2)C3)c(C)n1 [Compound 684, N-{3-[2-(4-chloro-3-fluorophenoxy)acetamido]bicyclo[1.1.1]pentan-1-yl}-2,6-dimethylpyridine-3-carboxamide]	1000 to 2000
O=C(COc1ccc(Cl)c(F)c1)NC12CC(NC(=O)c3cnsn3)(C1)C2 [Compound 895, N-{3-[2-(4-chloro-3-fluorophenoxy)acetamido]bicyclo[1.1.1]pentan-1-yl}-1,2,5-thiadiazole-3-carboxamide]	250 to 1000
O=C(COc1ccc(Cl)c(F)c1)NC12CC(NC(=O)c3cnc(C4=CCC(O)CC4)o3)(C1)C2 (stereo not drawn) [Compound 163, N-{3-[2-(4-chloro-3-fluorophenoxy)acetamido]bicyclo[1.1.1]pentan-1-yl}-2-(4-hydroxycyclohex-1-en-1-yl)-1,3-oxazole-5-carboxamide]	1000 to 2000
O=C(COc1ccc(Cl)c(F)c1)NC12CC(Nc3nccn4ncnc34)(C1)C2 [Compound 448, 2-(4-chloro-3-fluorophenoxy)-N-{3-[([1,2,4]triazolo[1,5-a]pyrazin-8-yl)amino]bicyclo[1.1.1]pentan-1-yl}acetamide]	1000 to 2000
O=C(COc1ccc(Cl)c(Cl)c1)NC12CC(NC(=O)c3ccc(OCCO)nc3)(C1)C2 [Compound 158, N-{3-[2-(3,4-dichlorophenoxy)acetamido]bicyclo[1.1.1]pentan-1-yl}-6-(2-hydroxyethoxy)pyridine-3-carboxamide]	250 to 1000

Compound	EC50 [nM]
N#CCc1ccccc1C(=O)NC12CC(NC(=O)COc3ccc(Cl)c(F)c3)(C1)C2 [Compound 206, N-{3-[2-(4-chloro-3-fluorophenoxy)acetamido]bicyclo[1.1.1]pentan-1-yl}-2-(cyanomethyl)benzamide]	250 to 1000
CCc1cc(C(=O)NC23CC(NC(=O)COc4ccc5c(c4)OC(F)(F)O5)(C2)C3)n(C)n1 [Compound 399, N-(3-{2-[(2,2-difluoro-2H-1,3-benzodioxol-5-yl)oxy]acetamido}bicyclo[1.1.1]pentan-1-yl)-3-ethyl-1-methyl-1H-pyrazole-5-carboxamide]	250 to 1000
CC(=O)Nc1ccc(C(=O)NC23CC(NC(=O)COc4ccc(Cl)c(F)c4)(C2)C3)cn1 [Compound 805, 6-acetamido-N-{3-[2-(4-chloro-3-fluorophenoxy)acetamido]bicyclo[1.1.1]pentan-1-yl}pyridine-3-carboxamide]	> 2000
O=C(COc1ccc(Cl)c(F)c1)NC12CC(NC(=O)c3cnc(-c4ccccc4)o3)(C1)C2 [Compound 344, N-{3-[2-(4-chloro-3-fluorophenoxy)acetamido]bicyclo[1.1.1]pentan-1-yl}-2-phenyl-1,3-oxazole-5-carboxamide]	< 50
O=C(COc1ccc(Cl)c(Cl)c1)NC12CC(NC(=O)c3ccc(Cl)c(F)c3)(C1)C2 [Compound 685, 4-chloro-N-{3-[2-(3,4-dichlorophenoxy)acetamido]bicyclo[1.1.1]pentan-1-yl}-3-fluorobenzamide]	< 50
Cc1cc2c(NC34CC(NC(=O)COc5ccc(OC(F)F)cc5)(C3)C4)nccn2n1 [Compound 438, 2-[4-(difluoromethoxy)phenoxy]-N-{3-[(2-methylpyrazolo[1,5-a]pyrazin-4-yl)amino]bicyclo[1.1.1]pentan-1-yl}acetamide]	250 to 1000
O=C(COc1ccc(Cl)c(F)c1)NC12CC(NC(=O)c3cncc(CO)c3)(C1)C2 [Compound 453, N-{3-[2-(4-chloro-3-fluorophenoxy)acetamido]bicyclo[1.1.1]pentan-1-yl}-5-(hydroxymethyl)pyridine-3-carboxamide]	1000 to 2000
O=C(COc1ccc(Cl)c(Cl)c1)NC12CC(NC(=O)c3ccc(C(F)F)nc3)(C1)C2 [Compound 927, N-{3-[2-(3,4-dichlorophenoxy)acetamido]bicyclo[1.1.1]pentan-1-yl}-6-(difluoromethyl)pyridine-3-carboxamide]	50 to 250
O=C(COc1ccc(Cl)c(F)c1)NC12CC(Nc3ccnc(-c4ccc(Cl)cc4)n3)(C1)C2 [Compound 427, 2-(4-chloro-3-fluorophenoxy)-N-(3-{[2-(4-chlorophenyl)pyrimidin-4-yl]amino}bicyclo[1.1.1]pentan-1-yl)acetamide]	250 to 1000
O=C(COc1ccc(Cl)c(F)c1)NC12CC(NC(=O)c3ccc(O)nc3)(C1)C2 [Compound 322, N-{3-[2-(4-chloro-3-fluorophenoxy)acetamido]bicyclo[1.1.1]pentan-1-yl}-6-hydroxypyridine-3-carboxamide]	> 2000
O=C(COc1ccc(Cl)c(F)c1)NC12CCC(NC(=O)c3csc(C4CC4)n3)(CC1)CC2O (stereo not drawn) [Compound 522, N-{4-[2-(4-chloro-3-fluorophenoxy)acetamido]-3-hydroxybicyclo[2.2.2]octan-1-yl}-2-cyclopropyl-1,3-thiazole-4-carboxamide]	50 to 250
O=C(COc1ccc(Cl)c(F)c1)NC12CCC(NC(=O)c3cnc4ccccn34)(CC1)CC2O (stereo not drawn) [Compound 595, N-{4-[2-(4-chloro-3-fluorophenoxy)acetamido]-3-hydroxybicyclo[2.2.2]octan-1-yl}imidazo[1,2-a]pyridine-3-carboxamide]	1000 to 2000
O=C(COc1ccc(Cl)c(F)c1)NC12CCC(NC(=O)c3cnc4ccccc4n3)(CC1)C[C@@H]2O [Compound 667, N-{(3S)-4-[2-(4-chloro-3-fluorophenoxy)acetamido]-3-hydroxybicyclo[2.2.2]octan-1-yl}quinoxaline-2-carboxamide]	< 50
CSc1sc(C(=O)NC23CC(NC(=O)COc4ccc(Cl)c(F)c4)(C2)C3)cc1C#N [Compound 897, N-{3-[2-(4-chloro-3-fluorophenoxy)acetamido]bicyclo[1.1.1]pentan-1-yl}-4-cyano-5-(methylsulfanyl)thiophene-2-carboxamide]	> 2000
CC(=O)NCc1ccc(C(=O)NC23CC(NC(=O)COc4ccc(Cl)c(F)c4)(C2)C3)o1 [Compound 778, 5-(acetamidomethyl)-N-{3-[2-(4-chloro-3-fluorophenoxy)acetamido]bicyclo[1.1.1]pentan-1-yl}furan-2-carboxamide]	> 2000
O=C(COc1ccc(Cl)c(F)c1)NC12CCC(NC(=O)c3cncs3)(CC1)CC2O (stereo not drawn) [Compound 593, N-{4-[2-(4-chloro-3-fluorophenoxy)acetamido]-3-hydroxybicyclo[2.2.2]octan-1-yl}-1,3-thiazole-5-carboxamide]	50 to 250
